Measured values taken from US6646137B1, “Non-peptide GnRH agents” (priority 1998, dated 2003).
Where two headings read alike, the source gives them in different places.

Molecular target: T1, human GnRH receptor (Homo sapiens, UniProt P30968)
T1 construct: The cDNA for the human GnRH receptor is cloned into the plasmid expression vector, pcDNA 3; expressed in transfected cells; host or cells: HEK 293 cells, stably transfected (pcDNA 3); membrane preparation
T1 sequence (P30968 1-328): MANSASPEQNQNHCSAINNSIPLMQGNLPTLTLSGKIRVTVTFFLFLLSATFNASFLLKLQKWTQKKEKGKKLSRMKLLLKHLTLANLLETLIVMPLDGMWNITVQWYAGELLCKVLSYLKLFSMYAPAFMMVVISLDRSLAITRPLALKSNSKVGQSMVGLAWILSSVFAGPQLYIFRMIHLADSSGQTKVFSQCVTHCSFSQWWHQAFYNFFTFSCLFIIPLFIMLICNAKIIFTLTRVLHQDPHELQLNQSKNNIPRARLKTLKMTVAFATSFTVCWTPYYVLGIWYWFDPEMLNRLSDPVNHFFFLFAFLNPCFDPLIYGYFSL
Assay: GnRH receptor competitive radioligand binding assay (125I-GnRH-A, HEK 293 cell membranes)
Conditions: compound at 10 μM
Text: The cDNA for the human GnRH receptor is cloned into the plasmid expression vector, pcDNA 3 (In Vitrogen), and stably transfected in HEK 293 cells (a cell line developed by Dr. Stuart Sealfon, Mount Sinai Medical School, New York, N.Y.).
The human GnRH receptor (hGnRH) is cloned into pcDNA 3 (In Vitrogen), which provides high-level expression and a neomycin resistance marker. Lipofectamine (GIBCO BRL) is used to transfect HEK 293 cells with plasmid DNA. This method involves mixing the plasmid and reagent in serum-free medium, allowing DNA-liposome complexes to form, and overlaying cells with this solution. The HEK 293 cells are plated (seeded) on a 10-cm tissue culture dish at a density of 3×10^6 cells/dish the day before transfection. For each plate, 8 μg DNA plus 0.8 mL serum-free medium is mixed with 48 μL lipofectamine plus 0.8 mL serum-free medium, followed by incubation for 30 minutes at room temperature to allow DNA-liposome complexes to form. Serum-free medium is added to give a final volume of 6 mL/plate. The cells are rinsed twice with serum-free medium and overlayed with the DNA-liposome mixture. Five hours after transfection, an equal volume (6 mL) of medium containing 20% FBS (fetal bovine serum) is added. The cells are fed with fresh complete medium 18-24 hours after transfection. The cells are split 72 hours following transfection, at densities of 1:10 and 1:20. Stable tranformants are selected for by growth of the cells in antibiotic containing medium (G418, Sigma Chemical Company (also known as Geneticin)). Colonies are isolated and tested for receptor expression by radioligand binding and by measuring phosphoinositol turnover.
HEK 293 cells stably transfected with human GnRH receptors as described above are grown in MEM (minimal essential medium, available from Sigma Chemical Company) supplemented with 0.1% G418 (Sigma Chemical Company). Cells are homogenized in buffer A containing 50 mM Tris (pH 74.), 0.32M sucrose, 2 mM ethyleneglycol-bis(β-aminoethyl)-N,N,N′,N′-tetraacetic acid (EGTA), 1 mM phenylmethylsulfonyl fluoride (PMSF), 5 μg/mL aprotinen, 5 μg/mL Pepstatin A, and 1 μg/mL leupeptin. The homogenized cells are centrifuged at 4° C. at 20,000×g for 25 minutes, resuspended in buffer A, and recentrifuged at 4° C. at 20,000×g for an additional 25 minutes. Total membrane protein is determined with a BCA kit (Pierce, Rockford, Ill.). Membranes are stored at −70° C. at a final membrane protein concentration of 5 mg/mL.
The radioiodinated agonist analog of GnRH, [des-Gly^10, D-Ala^8]GnRH ethylamide (GnRH-A), is used as the labeled ligand. One μg of GnRH-A diluted in 0.1M acetic acid is added to an lodogen®-coated borosilicate glass tube pierce) containing 35 μL of 0.05M phosphate buffer (pH 7.4-7.6) and 1 mCi of Na[^125I]. The reaction mixture is vortexed and incubated for 1 minute at room temperature. After one minute, the mixture is vortexed again and allowed to incubate for an additional minute. Two mL of 0.5M acetic acid/1% BSA is added to the reaction tube, and the mixture is added to a C18 Sep-Pak cartridge. The cartridge is washed with subsequent washes of 5 mL H2O and 5 mL 0.5M acetic acid, and then eluted with 5×1 mL of 60% CH3CN/40% 0.5M acetic acid. The eluant is diluted with 3×volume of HPLC buffer A (0.1% TFA in H2O) and loaded onto a C18 column. The iodinated product is eluted over 20-25 minutes with a gradient of 25-100% CH3CN containing 0.1% TFA. The radioactive fractions (750 μL/fraction) are collected into clean polypropylene tubes containing 10 μL of 10% BSA. Fractions are assessed for biological activity by radioligand binding. Active fractions are utilized to screen the compounds for competitive binding assays.
HEK 293 cell membranes stably expressing hGnRHR (human GnRH receptors) are diluted to 0.5-1.0 mg/mL with assay buffer containing 50 mM HEPES (pH 7.4), 1 mM ethylenediarninetetraacetic acid (EDTA), 2.5 mM MgCl2, and 0.1% BSA. […]

[1] = average of 1st and 2nd test, read-out: Average % Remaining (percent of specific binding remaining)
[2] = crude compounds, 125I-GnRH-A, lower value = higher inhibition, read-out: % Remaining 1st Test (percent of specific binding remaining)
[3] = crude compounds, 125I-GnRH-A, lower value = higher inhibition, read-out: % Remaining 2nd Test (percent of specific binding remaining)

Row | remaining activity at 10 µM [1] | remaining activity at 10 µM [2] | remaining activity at 10 µM [3] | SMILES
1 | 45% | 47% | 48% | CN(C)Cc1ccc(CN(Cc2ccc(OCc3ccccc3)c(OCc3ccccc3)c2)C(=O)c2ccco2)cc1 [Compound 70]
2 | 60% | 54% | 65% | CC(C)(C)c1ccc(CN(CC2CCC(CNC(=N)N)CC2)C(=O)c2ccco2)cc1 (stereo not drawn) [Compound 71]
3 | 52% | 49% | 54% | CC(C)(C)c1ccc(CN(CC2CCC(CNC(=N)N)CC2)C(=O)c2cc3ccccc3s2)cc1 (stereo not drawn) [Compound 72]
4 | 58% | 59% | 57% | CC(C)(C)c1ccc(CN(CC2CCC(CNC(=N)N)CC2)C(=O)C2CCCC2)cc1 (stereo not drawn) [Compound 73]
5 | 50% | 51% | 48% | CN(C)COc1ccc(CN(CC2CCC(CNC(=N)N)CC2)C(=O)c2cc3ccccc3s2)cc1 (stereo not drawn) [Compound 74]
6 | 59% | 59% | 58% | CC(=O)N(Cc1cccc(Oc2ccc(Cl)cc2)c1)CC1CCC(CNC(=N)N)CC1 (stereo not drawn) [Compound 75]
7 | 60% | 60% | 60% | N=C(N)NCC1CCC(CN(Cc2cccc(Oc3ccc(Cl)cc3)c2)C(=O)c2ccc(Cl)nc2)CC1 (stereo not drawn) [Compound 76]
8 | 52% | 48% | 56% | N=C(N)NCC1CCC(CN(Cc2cccc(Oc3ccc(Cl)cc3)c2)C(=O)C2CCCC2)CC1 (stereo not drawn) [Compound 77]
9 | 59% | 59% | 58% | N=C(N)NCC1CCC(CN(CC23CC=CCC2C2CC=CCC2O3)C(=O)c2cc3ccccc3s2)CC1 (stereo not drawn) [Compound 78]
10 | 49% | 50% | 48% | Cc1cc2c(cc1CN(CC1CCC(CNC(=N)N)CC1)C(=O)c1ccc([N+](=O)[O-])o1)C(C)(C)CCC2(C)C (stereo not drawn) [Compound 79]
11 | -4% | -4% | -4% | Cc1cc2c(cc1CN(CC1CCC(CNC(=N)N)CC1)C(=O)c1ccco1)C(C)(C)CCC2(C)C (stereo not drawn) [Compound 80]
12 | 27% | 28% | 25% | Cc1cc2c(cc1CN(CC1CCC(CNC(=N)N)CC1)C(=O)COCc1ccccc1)C(C)(C)CCC2(C)C (stereo not drawn) [Compound 81]
13 | 41% | 46% | 35% | COCC(=O)N(Cc1cc2c(cc1C)C(C)(C)CCC2(C)C)CC1CCC(CNC(=N)N)CC1 (stereo not drawn) [Compound 82]
14 | 55% | 53% | 57% | CC(=O)N(Cc1cc2c(cc1C)C(C)(C)CCC2(C)C)CC1CCC(CNC(=N)N)CC1 (stereo not drawn) [Compound 83]
15 | 48% | 52% | 44% | Cc1cc2c(cc1CN(CC1CCC(CNC(=N)N)CC1)C(=O)c1ccc(Cl)nc1)C(C)(C)CCC2(C)C (stereo not drawn) [Compound 84]
16 | 51% | 52% | 50% | Cc1cc2c(cc1CN(CC1CCC(CNC(=N)N)CC1)C(=O)C1CCCC1)C(C)(C)CCC2(C)C (stereo not drawn) [Compound 85]
17 | 51% | 56% | 45% | N=C(N)NCC1CCC(CN(Cc2cc3c(cc2Cl)OCO3)C(=O)c2ccco2)CC1 (stereo not drawn) [Compound 86]
18 | 52% | 57% | 47% | CCOc1cc(OCC)c(OCC)cc1CN(CC1CCC(CNC(=N)N)CC1)C(=O)c1ccco1 (stereo not drawn) [Compound 87]

The next lines start with the compound.

Row | SMILES | remaining activity at 10 µM [1] | remaining activity at 10 µM [2] | remaining activity at 10 µM [3]
19 | Cc1cc2c(cc1CN(CC1CCCC(CNC(=N)N)C1)C(=O)c1ccco1)C(C)(C)CCC2(C)C (stereo not drawn) [Compound 55] | -2% | -2% | -1%
20 | Cc1cc2c(cc1CN(CC1CCCC(CNC(=N)N)C1)C(=O)c1ccccc1)C(C)(C)CCC2(C)C (stereo not drawn) [Compound 56] | 58% | 56% | 60%
21 | CC(=O)N(Cc1cc2c(cc1C)C(C)(C)CCC2(C)C)CC1CCCC(CNC(=N)N)C1 (stereo not drawn) [Compound 57] | 55% | 47% | 63%
22 | Cc1cc2c(cc1CN(CC1CCCC(CNC(=N)N)C1)C(=O)c1ccc(Cl)nc1)C(C)(C)CCC2(C)C (stereo not drawn) [Compound 58] | 59% | 57% | 60%
23 | N=C(N)NCC1CCCC(CN(Cc2ccc(OCc3ccccc3)c(OCc3ccccc3)c2)C(=O)C2CCCCC2)C1 (stereo not drawn) [Compound 59] | 59% | 57% | 60%
24 | N=C(N)NCC1CCCC(CN(Cc2ccc(OCc3ccccc3)c(OCc3ccccc3)c2)C(=O)c2ccccc2)C1 (stereo not drawn) [Compound 62] | 52% | 49% | 55%
25 | CC(=O)N(Cc1ccc(OCc2ccccc2)c(OCc2ccccc2)c1)CC1CCCC(CNC(=N)N)C1 (stereo not drawn) [Compound 63] | 48% | 49% | 47%
26 | N=C(N)NCC1CCCC(CN(Cc2ccc(OCc3ccccc3)c(OCc3ccccc3)c2)C(=O)c2ccc(Cl)nc2)C1 (stereo not drawn) [Compound 64] | 49% | 46% | 51%
27 | N=C(N)NCC1CCCC(CN(Cc2ccc3c(c2)OCCO3)C(=O)c2cccc3ccccc23)C1 (stereo not drawn) [Compound 65] | 55% | 50% | 59%
28 | N=C(N)NCC1CCCC(CN(Cc2ccc3c(c2)OCCO3)C(=O)c2ccc3ccccc3c2)C1 (stereo not drawn) [Compound 66] | 54% | 50% | 57%
29 | CN(C)Cc1ccc(CN(CC2C=CCC3C4CC=CCC4OC23)C(=O)c2ccc3ccccc3c2)cc1 (stereo not drawn) [Compound 68] | 48% | 61% | 44%
30 | CN(C)Cc1ccc(CN(Cc2ccc(OCc3ccccc3)c(OCc3ccccc3)c2)C(=O)c2cccs2)cc1 [Compound 69] | 57% | 59% | 54%
